Assay results reported in ChEMBL document CHEMBL3603799, “3-Hydroxy-4-pyridinone derivatives designed for fluorescence studies to determine interaction with amyloid protein as well as cell permeability” (Bioorg Med Chem Lett, 2015).

Target: Amyloid-beta precursor protein (Homo sapiens) (UniProt P05067)
Test: Binding affinity to amyloid beta (1 to 40) (unknown origin) assessed as increase in fluorescence after 3 hrs by UV-spectra analysis

Amyloid-beta precursor protein (Homo sapiens), sequence (P05067 whole entry): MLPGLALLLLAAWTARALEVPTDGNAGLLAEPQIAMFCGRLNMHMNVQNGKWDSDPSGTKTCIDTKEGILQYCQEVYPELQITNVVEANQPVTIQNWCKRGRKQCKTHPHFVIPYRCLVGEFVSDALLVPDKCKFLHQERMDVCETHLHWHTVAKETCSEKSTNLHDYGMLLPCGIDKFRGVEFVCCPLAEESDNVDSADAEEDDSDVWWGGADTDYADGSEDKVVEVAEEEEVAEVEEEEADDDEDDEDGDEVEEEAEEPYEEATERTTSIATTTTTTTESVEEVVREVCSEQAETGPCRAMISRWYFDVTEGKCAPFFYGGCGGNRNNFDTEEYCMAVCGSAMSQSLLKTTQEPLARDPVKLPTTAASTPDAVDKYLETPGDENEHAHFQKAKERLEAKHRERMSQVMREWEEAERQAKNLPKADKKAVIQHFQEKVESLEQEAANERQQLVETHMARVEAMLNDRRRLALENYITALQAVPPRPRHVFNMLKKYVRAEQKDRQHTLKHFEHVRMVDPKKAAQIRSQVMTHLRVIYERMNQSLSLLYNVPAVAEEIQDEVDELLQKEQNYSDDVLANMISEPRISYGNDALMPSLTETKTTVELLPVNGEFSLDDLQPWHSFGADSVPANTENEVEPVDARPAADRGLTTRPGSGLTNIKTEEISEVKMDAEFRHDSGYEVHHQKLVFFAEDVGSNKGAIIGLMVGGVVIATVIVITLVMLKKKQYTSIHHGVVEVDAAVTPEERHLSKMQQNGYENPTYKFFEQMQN

Structure (SMILES)	Activity [%]
Cc1c(O)c(=O)ccn1-c1ccc(-c2nc3ccccc3o2)cc1	3
Cc1c(O)c(=O)ccn1-c1ccc(-c2nc3ccccc3s2)cc1	50
